Earlier results in US6610313B2, “Lysophospholipids composition with water solubility” (Doosan Corporation, priority 2001, dated 2003).

Assays:
phospholipase D = details: Proc. Natl. Acad. Sci. USA, Vol.94, pp12717-12721
[1] = LPE alone
tomato = details: U.S. Pat. Nos. 5,220,341 and 5,126,155

Substance	inhibition effect of phospholipase D (phospholipase D)	water solubility of LPE itself [1]	aging of leaves and fruits of tomato (tomato)	storage time of tomato after harvesting (tomato)
lysophosphatidylcholine [LPC]	only a slight activity	–	–	–
lysophosphatidylethanolamine [LPE]	most excellent	not water-soluble	inhibits the aging of leaves and fruits of tomato	extends the storage time of tomato after harvesting
lysophosphatidylic acid [LPA, reference compound]	cannot inhibit	–	–	–
lysophosphatidylserine [LPS, reference compound]	opposite	–	–	–

More lines, main results first:

inhibition effect of phospholipase D (phospholipase D)	water solubility of LPE itself [1]	Substance	aging of leaves and fruits of tomato (tomato)	storage time of tomato after harvesting (tomato)
opposite	–	lysophosphatidylglycerol [LPG, reference compound]	–	–
gradually decreases	–	lysophosphatidylinositol [LPI]	–	–
